Data from PubChem BioAssay AID248 (DTP/NCI, 2004).
Values joined by “and” are separate entries in the source; they are usually repeats but may differ in a detail not shown here. Equal values may be shown once. Inconclusive results and toxic doses are left out. Cut-off read from the data, not from the text of the source: active = T/C of 150% or more; inactive = T/C below 125%.

Tested on: L1210 leukemia ip in BDF1 mice, survival T/C
Test: NCI In Vivo Anticancer Drug Screen. Data for tumor model L1210 Leukemia (intraperitoneal) in B6D2F1 (BDF1) mice
Settings: endpoint: mean survival time, higher = longer survival
Outline: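 Read-out is survival time, reported as the treated-group measurement over the vehicle-control measurement.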

[1] = dose: 25.0 mg/kg/injection, schedule: Q04DX002 (ip), vehicle: saline with Tween-80
[2] = dose: 50.0 mg/kg/injection, schedule: Q04DX002 (ip), vehicle: saline with Tween-80
[3] = dose: 100.0 mg/kg/injection, schedule: Q04DX002 (ip), vehicle: saline with Tween-80
[4] = dose: 200.0 mg/kg/injection, schedule: Q04DX003 (ip), vehicle: saline with Tween-80
[5] = dose: 100.0 mg/kg/injection, schedule: Q04DX002 (ip), vehicle: other
[6] = dose: 200.0 mg/kg/injection, schedule: Q04DX002 (ip), vehicle: other
[7] = dose: 400.0 mg/kg/injection, schedule: Q04DX002 (ip), vehicle: other
[8] = dose: 100.0 mg/kg/injection, schedule: Q04DX003 (ip), vehicle: saline with Tween-80
[9] = dose: 400.0 mg/kg/injection, schedule: Q04DX003 (ip), vehicle: saline with Tween-80
[10] = dose: 100.0 mg/kg/injection, schedule: Q04DX002 (ip), vehicle: Klucel (hydroxypropylcellulose) (HPC)
[11] = dose: 200.0 mg/kg/injection, schedule: Q04DX002 (ip), vehicle: Klucel (hydroxypropylcellulose) (HPC)
[12] = dose: 400.0 mg/kg/injection, schedule: Q04DX002 (ip), vehicle: Klucel (hydroxypropylcellulose) (HPC)
[13] = dose: 100.0 mg/kg/injection, schedule: Q01DX001 (ip), vehicle: saline
[14] = dose: 200.0 mg/kg/injection, schedule: Q01DX001 (ip), vehicle: saline
[15] = dose: 100.0 mg/kg/injection, schedule: Q04DX003 (ip), vehicle: Klucel (hydroxypropylcellulose) (HPC)
[16] = dose: 400.0 mg/kg/injection, schedule: Q01DX001 (ip), vehicle: saline
[17] = dose: 100.0 mg/kg/injection, schedule: Q01DX005 (ip), vehicle: saline
[18] = dose: 200.0 mg/kg/injection, schedule: Q01DX005 (ip), vehicle: saline

Measured: T/C

COc1ccc(CCNC(=O)c2ccc(Cl)c(Cl)c2)cc1OC
inactive: [1] 100 % of control | [2] 96 % of control | [3] 106 % of control and 107 % of control

c1ccc(-c2nc(Oc3ccc(Oc4nc(-c5ccccc5)nc(-c5ccccc5)n4)cc3)nc(-c3ccccc3)n2)cc1
inactive: dose: 25.6 mg/kg/injection, schedule: Q04DX002 (ip), vehicle: saline with Tween-80 91 % of control | dose: 64.0 mg/kg/injection, schedule: Q04DX002 (ip), vehicle: saline with Tween-80 97 % of control | dose: 160.0 mg/kg/injection, schedule: Q04DX002 (ip), vehicle: saline with Tween-80 87 % of control | [4] 86 % of control | dose: 400.0 mg/kg/injection, schedule: Q04DX002 (ip), vehicle: saline with Tween-80 97 % of control

CCCCOC(=S)SCC(=O)O
inactive: [5] 103 % of control | [6] 106 % of control | [7] 94 % of control

Cc1cc(=O)[nH]c(NC(C)C(=O)O)n1 (configuration not stated)
inactive: dose: 12.5 mg/kg/injection, schedule: Q04DX003 (ip), vehicle: saline 101 % of control | dose: 25.0 mg/kg/injection, schedule: Q04DX003 (ip), vehicle: saline 101 % of control | dose: 50.0 mg/kg/injection, schedule: Q04DX003 (ip), vehicle: saline 101 % of control

Cc1cccc(C(=O)CC(O)(C(F)(F)F)C(F)(F)F)n1
inactive: [8] 92 % of control | [4] 86 % of control | [9] 90 % of control

CCCC(=O)Nc1cccc(OC(=O)NC)c1
inactive: [8] 90 % of control | [9] 88 % of control

O=C(Nc1ccccc1)c1ccc(C(F)(F)F)cc1O
inactive: [3] 105 % of control | dose: 200.0 mg/kg/injection, schedule: Q04DX002 (ip), vehicle: saline with Tween-80 103 % of control

O=C(Oc1c(Cl)cc(S(=O)(=O)F)cc1Cl)c1ccccc1Cl
inactive: [10] 92 % of control | [11] 89 % of control | [12] 89 % of control

CCc1ccncc1
inactive: [13] 101 % of control | [14] 88 % of control

CN1C(=O)C(C)(C)C(=O)c2ccccc21
inactive: [5] 90 % of control | [6] 100 % of control | [7] 97 % of control

CCCCCCN(CCCCCC)CP(=S)(CN(CCCCCC)CCCCCC)CN(CCCCCC)CCCCCC
inactive: dose: 100.0 mg/kg/injection, schedule: Q01DX001 (ip), vehicle: saline with Tween-80 99 % of control | dose: 200.0 mg/kg/injection, schedule: Q01DX001 (ip), vehicle: saline with Tween-80 104 % of control

CC1(C)C2CC3C(=CCC4C(=O)C=CC(=O)C43)C1C2 (configuration not stated)
inactive: [15] 95 % of control | dose: 200.0 mg/kg/injection, schedule: Q04DX003 (ip), vehicle: Klucel (hydroxypropylcellulose) (HPC) 93 % of control | dose: 400.0 mg/kg/injection, schedule: Q04DX003 (ip), vehicle: Klucel (hydroxypropylcellulose) (HPC) 95 % of control

COc1cc(-c2nc3ccccc3c(=O)o2)cc(OC)c1OC
inactive: dose: 100.0 mg/kg/injection, schedule: Q01DX009 (ip), vehicle: saline with Tween-80 105 % of control | [8] 103 % of control | dose: 200.0 mg/kg/injection, schedule: Q01DX009 (ip), vehicle: saline with Tween-80 91 % of control | [4] 89 % of control | [9] 97 % of control

COc1ccnc2ccc(C)c([N+](=O)[O-])c12
inactive: dose: 100.0 mg/kg/injection, schedule: Q04DX003 (ip), vehicle: other 96 % of control | dose: 200.0 mg/kg/injection, schedule: Q04DX003 (ip), vehicle: other 90 % of control

CCCCCCC1c2ccccc2CC1CCCC (configuration not stated)
inactive: dose: 50.0 mg/kg/injection, schedule: Q01DX001 (ip), vehicle: saline 102 % of control | [13] 104 % of control | [14] 102 % of control | [16] 98 % of control

Clc1ccccc1-c1ccc2c(Cl)ccnc2c1
inactive: [13] 95 % of control | [14] 95 % of control | [16] 91 % of control

BrC1CC2C3CCC(C3)C2C1Br (configuration not stated)
inactive: dose: 50.0 mg/kg/injection, schedule: Q01DX001 (ip), vehicle: carboxymethylcellulose (CMC) 91 % of control | dose: 100.0 mg/kg/injection, schedule: Q01DX001 (ip), vehicle: carboxymethylcellulose (CMC) 93 % of control | dose: 200.0 mg/kg/injection, schedule: Q01DX001 (ip), vehicle: carboxymethylcellulose (CMC) 93 % of control | dose: 400.0 mg/kg/injection, schedule: Q01DX001 (ip), vehicle: carboxymethylcellulose (CMC) 93 % of control

O=C(/C=C\c1ccccc1)C(=O)/C=C/c1ccccc1
inactive: dose: 25.0 mg/kg/injection, schedule: Q01DX009 (ip), vehicle: other 93 % of control | dose: 25.0 mg/kg/injection, schedule: Q04DX003 (ip), vehicle: Klucel (hydroxypropylcellulose) (HPC) 105 % of control | dose: 50.0 mg/kg/injection, schedule: Q01DX009 (ip), vehicle: other 98 % of control | dose: 50.0 mg/kg/injection, schedule: Q04DX003 (ip), vehicle: Klucel (hydroxypropylcellulose) (HPC) 94 % of control | dose: 100.0 mg/kg/injection, schedule: Q01DX001 (ip), vehicle: other 89 % of control | [15] 86 % of control

Cc1ccc(S(=O)(=O)OCC(COS(=O)(=O)c2ccc(C)cc2)(COS(=O)(=O)c2ccc(C)cc2)COS(=O)(=O)c2ccc(C)cc2)cc1
inactive: dose: 50.0 mg/kg/injection, schedule: Q04DX002 (ip), vehicle: Klucel (hydroxypropylcellulose) (HPC) 97 % of control | [10] 93 % of control and 105 % of control | [11] 102 % of control | [12] 110 % of control

COc1ccc(OC(C)=O)c2c1C(=O)OC(C)C2NC(=O)C(C)NC(C)=O (configuration not stated)
inactive: dose: 12.5 mg/kg/injection, schedule: Q04DX002 (ip), vehicle: saline with Tween-80 103 % of control | [1] 107 % of control | [2] 100 % of control

Nc1ncnc2c1ncn2C1OC(CO)C2OP(=O)(O)OC21 (configuration not stated)
inactive: [17] 95 % of control | [18] 118 % of control

CSc1cc(=O)n(C2OC(CO)C(O)C2O)c(=O)[nH]1 (configuration not stated)
inactive: [13] 101 % of control | [17] 101 % of control | [14] 118 % of control | [18] 97 % of control | [16] 104 % of control

O=P(O)(N(CCCl)CCCl)N1CCN(P(=O)(O)N(CCCl)CCCl)CC1
inactive: dose: 10.0 mg/kg/injection, schedule: Q01DX015 (ip), vehicle: saline 110 % of control | dose: 30.0 mg/kg/injection, schedule: Q01DX015 (ip), vehicle: saline 119 % of control | [13] 115 % of control | [14] 113 % of control | [16] 124 % of control
